Results on one substance are retold here after patent publication US20040022788A1, “Compositions and methods for promoting or inhibiting angiogenesis” (priority 1998, published 2004).

Assay [1] deals with T1, recombinant alpha subunit of human ATP synthase (Homo sapiens, UniProt P25705).
T1 construct: His tag; made in house; host or cells: E. coli BL21DE3
Briefly: Ligand blot binding to the recombinant alpha subunit of ATP synthase. As to conditions: ligand blot. How it is done: FIGS. 7A-7E. Angiostatin binding to the recombinant alpha subunit of human ATP synthase. The alpha subunit of human ATP synthase was cloned and expressed in E. coli and purified using Qiagen's nickel-Sepharose protein purification system before dialyzing in phosphate buffered saline (PBS), pH 7.0. Recombinant protein was electrophoresed on 5-15% SDS-PAGE, electroblotted onto Immobilon™ membrane and incubated 18 h in 10 mM Tris-HCl, 0.15M NaCl, 0.05% NP40, pH 7.5 (TSN) containing ^125I-angiostatin. For competition studies, unlabeled ligand was added 4 h prior to radiolabeled ligand. Blots were washed in TSN buffer containing 0.05% Tween80 and bound radioactivity was quantified on a Molecular Dynamics PhosphorImager™.
Purification of the alpha-Subunit of ATP Synthase. Competent E. coli BL21DE3 were transformed with the pET24a(+) vector containing the alpha subunit, plated on 2× Bacto-yeast tryptone (YT) agarose, and grown overnight at 37° C. Twenty milliliters of 2× YT containing […] kanamycin was inoculated with one colony and grown overnight at 37° C. (200 rpm). A 1-liter culture (2× YT, […] kanamycin) was inoculated with 20 ml of the noninduced overnight culture and grown at 37° C. to an OD of 0.6 at a wavelength of 600 nm. Isopropyl […] was added to a final concentration of 1 mM and grown for an additional 3 h. Cells were harvested by centrifugation at 8,000 rpm for 10 min and stored overnight at −20° C. Lysates were prepared under denaturing conditions and batch-purified by using Qiagen Ni-NTA agarose. Resulting protein was dialyzed against PBS, pH 7.0 for use in all experiments.

For assay [2], the target named is T2, purified bovine F1 ATP synthase (Bos taurus, UniProt P00829+P19483).
T2 construct: from tissue; host or cells: bovine heart mitochondria
Briefly: F1 activity assay (ATPase, coupled NADH oxidation at 340 nm). The assay is classed as biochemical. The note with it: angiostatin. How it is done: FIG. 12 is a bar graph showing the inhibition of purified F1 ATP synthase by angiostatin. Purified F1 ATP synthase activity was measured spectrophotometrically at λ=340 nm by coupling the production of ADP to the oxidation of NADH via the pyruvate kinase and lactate dehydrogenase reaction in which a decrease in the absorbance at λ=340 nm indicates active protein (dark six membered rings). […] Control antibodies had no effect on activity (light circles and squares). Representative data shown, n=3.
Purification of Bovine Heart F1 ATP Synthase and F1 Activity Assay. Fresh bovine heart mitochondria were obtained as previously described (23) and sonicated to yield sub-mitochondrial particles (24). The F1 portion was separated from membrane-bound FO by chloroform extraction. The aqueous layer was centrifuged at 105,000×g to remove particulate matter before purifying over an S300 gel filtration column. […] ATPase activity was measured spectrophotometrically by monitoring at λ=340 nm by coupling the production of ADP to the oxidation of NADH via pyruvate kinase and lactate dehydrogenase reactions as described in Zheng,& Ramirez, Biochem Biophys Res Commun 261(25):499-503 (1999).

The subject of a further assay is HUVEC. As to the kind of experiment: HUVEC cell proliferation assay (CyQUANT). Type of assay: cell-based, human. As to conditions: 1 μM; 24 hrs; n = 3. How it is done:
Cell Proliferation Assay. HUVEC were plated at a density of 5000 cells/well in media depleted of fetal calf serum (FCS) overnight to allow the cells to become quiescent. Fresh media containing 5% FCS, 10 ng/ml basic fibroblast growth factor (bFGF) and 3 ng/ml vascular endothelial growth factor (VEGF) were added to the wells along with angiostatin (1.0 μM), antibody directed against the recombinant human alpha-subunit of ATP synthase (1:10 dil), antibody directed against the recombinant human beta-subunit of ATP synthase (1:10 dil), pre-immune serum (1:10 dil) or cycloheximide ([…]). Cell density was measured after 24 hrs using CyQUANT Cell Proliferation Assay Kit (Molecular Probes) in a fluorometric plate reader (Molecular Devices). The absorbance values used to calculate the percent proliferation of the cells ranged from 1.24 or 1.00 for treated and 2.57 for untreated.

Consider angiostatin, for which the “binding of 125I-labeled ligand to recombinant alpha subunit” value in assay [1] was “bound”. Moreover, the “inhibition of purified F1 ATPase activity” value in assay [2] is on record as “completely inhibited”. For the same substance, the “Percent Inhibition (+/− S.E.M.) of HUVEC proliferation” value with HUVEC is 57.2 +/− 1.16%.
